Measured values: ChEMBL document CHEMBL3785047, “Biological evaluation of synthetic α,β-unsaturated carbonyl based cyclohexanone derivatives as neuroprotective novel inhibitors of acetylcholinesterase, butyrylcholinesterase and amyloid-β aggregation” (Bioorg Med Chem, 2016)

Experiments:
[1] = Cytotoxicity against rat PC12 cells assessed as reduction in cell viability at 0.01 to 100 uM after 24 hrs by MTT assay; format: cell-based; settings: pc-12, 24 h
PC-12 = assay: Neuroprotective activity against amyloid beta (1 to 42)-induced cell death in rat PC12 cells assessed as cell viability at 100 uM preincubated for 24 hrs followed by amyloid beta (1 to 42) addition measured after 1 day by MTT assay relative to control; format: functional; settings: read-out: Activity
Acetylcholinesterase = Acetylcholinesterase (Electrophorus electricus, UniProt O42275)
Description: Inhibition of electric eel AChE using acetylthiocholine iodide as substrate preincubated for 5 mins followed by substrate addition measured for 10 mins by modified Ellman's method

Cholinesterase = Cholinesterase (Equus caballus, UniProt P81908)
Description: Inhibition of horse serum BChE using butrylthiocholine iodide as substrate preincubated for 5 mins followed by substrate addition measured for 10 mins by modified Ellman's method

[2] = molecular target: Amyloid-beta precursor protein (Homo sapiens) (UniProt P05067); assay: Inhibition of amyloid beta (1-42) (unknown origin) self-induced aggregation after 2 days by thioflavin T fluorometric assay
Amyloid-beta precursor protein (Homo sapiens), sequence (P05067 whole entry): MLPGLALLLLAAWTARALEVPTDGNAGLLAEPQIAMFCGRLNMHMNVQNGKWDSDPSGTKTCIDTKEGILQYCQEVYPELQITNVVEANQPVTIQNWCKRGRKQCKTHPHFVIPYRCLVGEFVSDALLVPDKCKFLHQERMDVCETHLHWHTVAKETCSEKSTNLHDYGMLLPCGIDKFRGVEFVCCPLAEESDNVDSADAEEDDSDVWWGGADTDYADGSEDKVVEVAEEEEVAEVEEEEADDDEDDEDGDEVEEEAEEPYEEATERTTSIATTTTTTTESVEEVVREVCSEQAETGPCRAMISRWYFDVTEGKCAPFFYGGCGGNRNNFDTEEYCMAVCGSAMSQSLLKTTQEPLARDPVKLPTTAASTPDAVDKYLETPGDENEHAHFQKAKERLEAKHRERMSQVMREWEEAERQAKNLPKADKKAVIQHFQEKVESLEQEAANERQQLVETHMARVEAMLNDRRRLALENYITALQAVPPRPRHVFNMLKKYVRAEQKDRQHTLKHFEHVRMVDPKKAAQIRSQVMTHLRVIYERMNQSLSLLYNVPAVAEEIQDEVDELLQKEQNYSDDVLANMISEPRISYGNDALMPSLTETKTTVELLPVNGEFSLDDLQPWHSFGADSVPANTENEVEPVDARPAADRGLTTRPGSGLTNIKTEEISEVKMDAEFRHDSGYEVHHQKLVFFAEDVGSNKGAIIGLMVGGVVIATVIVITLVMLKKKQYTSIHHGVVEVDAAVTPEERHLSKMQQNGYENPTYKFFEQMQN

Cholinesterase, sequence (P81908 whole entry): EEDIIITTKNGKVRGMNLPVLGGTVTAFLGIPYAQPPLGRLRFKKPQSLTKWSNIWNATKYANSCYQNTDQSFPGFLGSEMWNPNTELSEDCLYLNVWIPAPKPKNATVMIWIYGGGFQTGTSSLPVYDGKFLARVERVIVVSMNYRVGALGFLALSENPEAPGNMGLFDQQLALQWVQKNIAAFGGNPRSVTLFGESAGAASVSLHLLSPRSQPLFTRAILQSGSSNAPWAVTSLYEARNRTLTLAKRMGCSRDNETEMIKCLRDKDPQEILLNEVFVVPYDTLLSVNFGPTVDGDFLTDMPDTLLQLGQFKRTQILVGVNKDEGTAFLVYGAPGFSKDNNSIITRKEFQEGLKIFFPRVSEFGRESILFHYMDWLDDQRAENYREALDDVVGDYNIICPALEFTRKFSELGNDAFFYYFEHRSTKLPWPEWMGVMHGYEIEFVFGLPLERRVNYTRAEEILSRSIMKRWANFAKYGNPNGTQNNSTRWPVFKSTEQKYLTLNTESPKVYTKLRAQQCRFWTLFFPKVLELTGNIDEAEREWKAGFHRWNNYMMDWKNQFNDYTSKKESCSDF
Acetylcholinesterase, sequence (O42275 whole entry): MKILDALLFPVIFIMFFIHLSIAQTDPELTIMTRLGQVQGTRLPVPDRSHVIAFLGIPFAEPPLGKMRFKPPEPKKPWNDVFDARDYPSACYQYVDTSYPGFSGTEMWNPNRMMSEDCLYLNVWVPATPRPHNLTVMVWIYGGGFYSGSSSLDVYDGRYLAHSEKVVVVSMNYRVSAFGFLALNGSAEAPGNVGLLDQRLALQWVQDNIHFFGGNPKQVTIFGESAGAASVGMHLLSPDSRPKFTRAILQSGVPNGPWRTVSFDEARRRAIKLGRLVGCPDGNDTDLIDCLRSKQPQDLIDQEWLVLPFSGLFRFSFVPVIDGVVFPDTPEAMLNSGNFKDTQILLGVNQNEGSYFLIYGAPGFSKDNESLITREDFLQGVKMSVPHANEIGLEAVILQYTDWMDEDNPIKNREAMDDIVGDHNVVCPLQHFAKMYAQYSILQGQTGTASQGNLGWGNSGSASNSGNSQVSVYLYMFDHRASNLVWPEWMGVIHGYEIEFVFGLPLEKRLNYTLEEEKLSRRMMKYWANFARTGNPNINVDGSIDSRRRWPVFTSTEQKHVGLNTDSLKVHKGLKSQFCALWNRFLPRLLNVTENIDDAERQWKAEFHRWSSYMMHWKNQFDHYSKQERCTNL

SMILES | Activity [1] | viability at 100 µM (PC-12) | IC50 (Acetylcholinesterase) | IC50 (Cholinesterase) | inhibition [2]
COc1cccc(/C=C2\CC(C)C/C(=C\c3cccc(OC)c3Cl)C2=O)c1Cl (centres undefined) | Non-toxic | 58% | 5.6 µM | 49.7 µM | 
COc1ccc(/C=C2\CC(C)C/C(=C\c3ccc(OC)c(OC)c3Cl)C2=O)c(Cl)c1OC (centres undefined) | Non-toxic | 58% | 2.1 µM | 11.2 µM | 
COc1ccc(/C=C2\CN(C)C/C(=C\c3ccc(OC)c(OC)c3Cl)C2=O)c(Cl)c1OC | Non-toxic | ≤ 92% | 0.63 µM | 2.9 µM | Dose-dependent effect
COc1cc(/C=C2\CN(Cc3ccccc3)C/C(=C\c3cc(OC)c(OC)c(OC)c3Br)C2=O)c(Br)c(OC)c1OC | Non-toxic | 58% | > 100 µM | > 100 µM | 
COc1cc(/C=C2\COC/C(=C\c3cc(OC)c(OC)c(OC)c3Br)C2=O)c(Br)c(OC)c1OC | Non-toxic | ≤ 92% | 1.5 µM | > 100 µM | 
COc1cc(/C=C2\CNC/C(=C\c3cc(OC)c(OC)c(OC)c3Br)C2=O)c(Br)c(OC)c1OC | Non-toxic | ≤ 92% | 1.9 µM | 68.8 µM | 
COc1ccc(/C=C2\CC(C(C)C)C/C(=C\c3ccc(OC)c(OC)c3Cl)C2=O)c(Cl)c1OC (centres undefined) | Non-toxic | 58% | 0.92 µM | > 100 µM | Dose-dependent effect
COc1cccc(/C=C2\COC/C(=C\c3cccc(OC)c3Cl)C2=O)c1Cl | Non-toxic | 58% | 9.5 µM | > 100 µM | 
COc1cccc(/C=C2\CN(Cc3ccccc3)C/C(=C\c3cccc(OC)c3Cl)C2=O)c1Cl | Non-toxic | 58% | > 100 µM | > 100 µM | 
COc1ccc(/C=C2\CCC/C(=C\c3ccc(OC)c(OC)c3Cl)C2=O)c(Cl)c1OC | Non-toxic | 58% | 17.5 µM | > 100 µM | 
COc1cccc(/C=C2\CC(C(C)C)C/C(=C\c3cccc(OC)c3Cl)C2=O)c1Cl (centres undefined) | Non-toxic | 58% | 1.3 µM | > 100 µM | 
COc1cccc(/C=C2\CNC/C(=C\c3cccc(OC)c3Cl)C2=O)c1Cl | Non-toxic | 58% | 5.2 µM | > 100 µM | 
COc1cc(/C=C2\CC(C(C)C)C/C(=C\c3cc(OC)c(OC)c(OC)c3Br)C2=O)c(Br)c(OC)c1OC (centres undefined) | Non-toxic | 58% | 0.51 µM | > 100 µM | Dose-dependent effect
COc1ccc(/C=C2\CNC/C(=C\c3ccc(OC)c(OC)c3Cl)C2=O)c(Cl)c1OC | Non-toxic | 58% | 3.7 µM | 16.7 µM | 
COc1cc(/C=C2\CCC/C(=C\c3cc(OC)c(OC)c(OC)c3Br)C2=O)c(Br)c(OC)c1OC | Non-toxic | 58% | 12.6 µM | > 100 µM | Dose-dependent effect
COc1ccc(/C=C2\CN(Cc3ccccc3)C/C(=C\c3ccc(OC)c(OC)c3Cl)C2=O)c(Cl)c1OC | Non-toxic | 58% | > 100 µM | > 100 µM | 
COc1cccc(/C=C2\CN(C)C/C(=C\c3cccc(OC)c3Cl)C2=O)c1Cl | Non-toxic | ≤ 92% | 1.2 µM | > 100 µM | 
COc1cc(/C=C2\CN(C)C/C(=C\c3cc(OC)c(OC)c(OC)c3Br)C2=O)c(Br)c(OC)c1OC | Non-toxic | ≤ 92% | 0.037 µM | 10.5 µM | Dose-dependent effect
COc1cccc(/C=C2\CCC/C(=C\c3cccc(OC)c3Cl)C2=O)c1Cl | Non-toxic | 58% | 22.4 µM | > 100 µM | 
COc1ccc(/C=C2\COC/C(=C\c3ccc(OC)c(OC)c3Cl)C2=O)c(Cl)c1OC | Non-toxic | 58% | 7.2 µM | > 100 µM | 
COc1cc(/C=C2\CC(C)C/C(=C\c3cc(OC)c(OC)c(OC)c3Br)C2=O)c(Br)c(OC)c1OC (centres undefined) | Non-toxic | ≤ 92% | 1.5 µM | 19.5 µM | 
